# Test results: patent US5567711A, “Indole-3-carbonyl and indole-3-sulfonyl derivatives as platelet activating factor antagonists” (Abbott Laboratories, priority 1995, dated 1996)
# Where a name gives a salt, the structure may show the parent alone.
# Molecular target: PAF receptor (Oryctolagus cuniculus, UniProt G1TEI7)
# Assay: PAF receptor binding assay: inhibition of specific [^3 H]C18 -PAF binding to rabbit platelet membranes
# Conditions: not given
# Sequence of PAF receptor (G1TEI7 1-342): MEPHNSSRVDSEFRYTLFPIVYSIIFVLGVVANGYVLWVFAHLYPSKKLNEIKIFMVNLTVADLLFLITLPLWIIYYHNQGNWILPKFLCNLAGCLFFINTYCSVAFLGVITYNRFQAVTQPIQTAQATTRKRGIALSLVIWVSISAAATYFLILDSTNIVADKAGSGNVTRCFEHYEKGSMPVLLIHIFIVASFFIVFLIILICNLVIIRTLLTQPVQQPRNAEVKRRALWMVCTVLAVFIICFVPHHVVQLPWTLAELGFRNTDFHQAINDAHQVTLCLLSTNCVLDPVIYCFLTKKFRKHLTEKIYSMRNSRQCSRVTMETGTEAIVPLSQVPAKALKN
row,SMILES,Ki
1,"CCOCCn1cc(C(=O)N2CCC(Cn3c(C)nc4cnccc43)CC2)c2ccc(-c3ccc(F)cc3)cc21 [Example 8, 1-(2-ethoxyethyl)-6-(4-fluorophenyl)-3-{[4-(1H-2-methylimidazo[4,5-c]pyrid-1-yl)methylpiperidin-1-yl]carbonyl}indole hydrochloride]",1.2 nM
2,CCOCCn1cc(C(=O)CN2CCC(n3c(C)nc4cnccc43)CC2)c2c(C(=O)OC)cccc21 [Example 23],5.2 nM
3,CCOCCn1cc(C(=O)CN2CCC(n3c(C)nc4cnccc43)CC2)c2c(Cl)cccc21 [Example 25],10 nM
4,"CCOCCn1cc(C(=O)CN2CCC(n3c(C)nc4cnccc43)CC2)c2c(C)cccc21 [Example 28, 1-(2-ethoxyethyl)-4-methyl-3-{[4-(1H-2-methylimidazo[4.5-c]pyrid-1-yl)piperidin-1-yl]acetyl}indole]",0.5 nM

# Same assay, conditions: @ 1.0 μM; rabbit platelet membranes; 0.6 nM [^3 H]C18 -PAF; 60 minutes at room temperature
row,SMILES,inhibition at 1 µM
1,"Cc1nc2cnccc2n1C1CCN(S(=O)(=O)c2c[nH]c3cc(-c4ccc(F)cc4)ccc23)CC1 [Example 13, 6-(4-fluorophenyl)-3-{[4-(1H-2-methylimidazo[4.5-c]pyrid-1-yl)piperidin-1-yl]sulfonyl}indole]",32%

# Same assay, conditions: rabbit platelet membranes; 0.6 nM [^3 H]C18 -PAF; 60 minutes at room temperature; pH 7.0; Ki by Cheng and Prusoff from IC50
row,SMILES,Ki
1,"CCOCCn1cc(C(=O)N2CCC(Cn3c(C)nc4cnccc43)CC2)c2c(Cl)cccc21 [Example 9, 1-(2-ethoxyethyl)-4-chloro-3-{[4-(1H-2-methylimidazo[4.5-c]pyrid-1-yl)methylpiperidin-1-yl]carbonyl}indole hydrochloride]",29 nM

# Same assay, conditions: rabbit platelet membranes; 0.6 nM [^3 H]C18 -PAF; 60 minutes at room temperature; pH 7.0; Ki by Cheng and Prusoff from IC50; read-out: Ki
row,SMILES,Ki
1,"Cc1nc2cnccc2n1C1CCN(C(=O)c2cn(C(=O)N(C)C)c3cc(-c4ccc(F)cc4)ccc23)CC1 [Example 1, 6-(4-fluorophenyl)-3-{[4-(1H-2-methylimidazo[4.5-c]pyrid-1-yl)piperidin-1-yl]carbonyl)indole-1-carboxylic acid dimethyl amide hydrochloride]",3.3 nM
2,"Cc1nc2cnccc2n1C1CCN(C(=O)c2c[nH]c3cc(-c4ccc(F)cc4)ccc23)CC1 [Example 2, 6-(4-fluorophenyl)-3-{[4-(1H-2-methylimidazo[4.5-c]pyrid-1-yl)piperidin-1-yl]carbonyl}indole hydrochloride]",44 nM
3,"Cc1nc2cnccc2n1C1CCN(C(=O)c2c[nH]c3ccccc23)CC1 [Example 3, 3-{[4-(1H-2-methylimidazo[4,5-c]pyrid-1-yl)piperidin-1-yl]carbonyl}indole hydrochloride]",100 nM
4,"COC(=O)c1cccc2c1c(C(=O)N1CCC(n3c(C)nc4cnccc43)CC1)cn2C(=O)N(C)C [Example 4, 3-{[4-(1H-2-methylimidazo[4.5-c]pyrid-1-yl)piperidin-1-yl]carbonyl}indole-1,4-dicarboxylic acid 1-dimethyl amide-4-methyl ester hydrochloride]",140 nM
5,"COC(=O)c1cccc2c1c(C(=O)N1CCC(Cn3c(C)nc4cnccc43)CC1)cn2C(=O)N(C)C [Example 5, 1-N,N-dimethylcarbamoyl-4-methoxycarbonyl-3-{[4-(1H-2-methylimidazo[4.5-c]pyrid-1-yl)methylpiperidin-1-yl]carbonyl}indole-1,4-dicarboxylic acid 1-dimethyl amide-4-methyl ester hydrochloride]",74 nM
6,"Cc1nc2cnccc2n1CC1CCN(C(=O)c2cn(C(=O)N(C)C)c3cc(-c4ccc(F)cc4)ccc23)CC1 [Example 6, 6-(4-fluorophenyl)-3-{[4-(1H-2-methylimidazo[4.5-c]pyrid-1-yl)methylpiperidin-1-yl]carbonyl}indole-1-carboxylic acid dimethyl amide hydrochloride]",2.5 nM
7,"Cc1nc2cnccc2n1CC1CCN(C(=O)c2cn(C(=O)N(C)C)c3cccc(Cl)c23)CC1 [Example 7, 4-chloro-3-{[4-(1H-2-methylimidazo[4.5-c]pyrid-1-yl)methylpiperidin-1-yl]carbonyl}indole-1-carboxylic acid dimethyl amide hydrochloride]",18 nM
8,"COC(=O)c1cccc2c1c(C(=O)N1CCN(CCn3c(C)nc4cnccc43)CC1)cn2C(=O)N(C)C [Example 10, 3-[{4-[(2-(1H-2-methylimidazo[4.5-c]pyrid-1-yl)ethyl]piperazin-1-yl}carbonyl]indole-1,4-dicarboxylic acid 1-dimethyl amide 4-methyl ester hydrochloride]",200 nM
9,"Cc1nc2cnccc2n1CCN1CCN(C(=O)c2cn(C(=O)N(C)C)c3cc(-c4ccc(F)cc4)ccc23)CC1 [Example 11, 6-(4-fluorophenyl)-3-[{4-[(2-(1H-2-methylimidazo[4.5-c]pyrid-1-yl)ethyl]piperazin-1-yl}carbonyl]indole-1-carboxylic acid dimethyl amide hydrochloride]",30 nM
10,"Cc1nc2cnccc2n1C1CCN(S(=O)(=O)c2cn(C(=O)OC(C)(C)C)c3cc(-c4ccc(F)cc4)ccc23)CC1 [Example 12, 6-(4-fluorophenyl)-3-{[4-(1H-2-methylimidazo[4.5-c]pyrid-1-yl)piperidin-1-yl]sulfonyl}indole-1-carboxylic acid t-butyl ester]",340 nM
11,"Cc1nc2cnccc2n1C1CCN(S(=O)(=O)c2cn(C(=O)N(C)C)c3cc(-c4ccc(F)cc4)ccc23)CC1 [Example 14, 6-(4-fluorophenyl)-3-{[4-(1H-2-methylimidazo[4.5-c]pyrid-1-yl)piperidin-1-yl]sulfonyl}indole-1-carboxylic acid dimethyl amide hydrochloride]",120 nM
12,"Cc1nc2cnccc2n1CC1CCN(S(=O)(=O)c2cn(C(=O)OC(C)(C)C)c3cc(-c4ccc(F)cc4)ccc23)CC1 [Example 15, 6-(4-fluorophenyl)-3-{[4-(1H-2-methylimidazo[4.5-c]pyrid-1-yl)methylpiperidin-1-yl]sulfonyl)indole-1-carboxylic acid t-butyl ester]",65 nM
13,"Cc1nc2cnccc2n1CC1CCN(S(=O)(=O)c2c[nH]c3cc(-c4ccc(F)cc4)ccc23)CC1 [Example 16, 6-(4-fluorophenyl)-3-{[4-(1H-2-methylimidazo[4.5-c]pyrid-1-yl)methylpiperidin-1-yl]sulfonyl}indole]",250 nM
14,"Cc1nc2cnccc2n1CC1CCN(S(=O)(=O)c2cn(C(=O)N(C)C)c3cc(-c4ccc(F)cc4)ccc23)CC1 [Example 17, 6-(4-fluorophenyl)-3-{[4-(1H-2-methylimidazo[4.5-c]pyrid-1-yl)methylpiperidin-1-yl]sulfonyl}indole-1-carboxylic acid dimethyl amide]",1.2 nM
15,Cc1nc2cnccc2n1CCN1CCN(S(=O)(=O)c2cn(C(=O)N(C)C)c3cc(-c4ccc(F)cc4)ccc23)CC1 [Example 18],110 nM
16,"Cc1nc2cnccc2n1C1CCN(CC(=O)c2c[nH]c3cc(-c4ccc(F)cc4)ccc23)CC1 [Example 19, 6-(4-fluorophenyl)-3-{[4-(1H-2-methylimidazo[4.5-c]pyrid-1-yl)piperidin-1-yl]acetyl}indole]",95 nM
17,Cc1nc2cnccc2n1C1CCN(CC(=O)c2cn(C(=O)N(C)C)c3cc(-c4ccc(F)cc4)ccc23)CC1 [Example 20],2.5 nM
18,"COC(=O)c1cccc2[nH]cc(C(=O)CN3CCC(n4c(C)nc5cnccc54)CC3)c12 [Example 21, 3-{[4-(1H-2-methylimidazo[4.5-c]pyrid-1-yl)piperidin-1-yl]acetyl}indole-4-carboxylic acid methy ester]",14 nM
19,"COC(=O)c1cccc2c1c(C(=O)CN1CCC(n3c(C)nc4cnccc43)CC1)cn2C(=O)N(C)C [Example 22, 3-{[4-(1H-2-methylimidazo[4.5-c]pyrid-1-yl)piperidin-1-yl]acetyl}indole-1,4-dicarboxylic acid 1-dimethyl amide 4-methyl ester]",12 nM
20,"Cc1nc2cnccc2n1C1CCN(CC(=O)c2c[nH]c3cccc(Cl)c23)CC1 [Example 24, 4-chloro-3-{[4-(1H-2-methylimidazo[4.5-c]pyrid-1-yl)piperidin-1-yl]acetyl}indole]",30 nM
21,"Cc1nc2cnccc2n1C1CCN(CC(=O)c2cn(C(=O)N(C)C)c3cccc(Cl)c23)CC1 [Example 26, 4-chloro-3-{[4-(1H-2-methylimidazo[4.5-c]pyrid-1-yl)piperidin-1-yl]acetyl}indole-1-carboxylic acid dimethyl amide]",12 nM
22,"Cc1cccc2[nH]cc(C(=O)CN3CCC(n4c(C)nc5cnccc54)CC3)c12 [Example 27, 4-methyl-3-{[4-(1H-2-methylimidazo[4.5-c]pyrid-1-yl)piperidin-1-yl]acetyl}indole]",71 nM
23,"Cc1cccc2c1c(C(=O)CN1CCC(n3c(C)nc4cnccc43)CC1)cn2C(=O)N(C)C [Example 29, 4-methyl-3-{[4-(1H-2-methylimidazo[4.5:c]pyrid-1-yl)piperidin-1-yl]acetyl}indole-1-carboxylic acid dimethyl amide]",2 nM
24,"COC(=O)c1cccc2c1c(C(=O)[C@H]1CC[C@H](Cn3c(C)nc4cnccc43)CC1)cn2C(=O)N(C)C [Example 30, 3-{[trans-4-[(1H-2-methylimidazo[4.5-c]pyrid-1-yl)methylcyclohex-1-yl]carbonyl}indole-1,4-dicarboxylic acid 1-dimethyl amide 4-methyl ester hydrochloride]",2.4 nM
